Measured values published in patent US12077503B2, “Substituted cyclic amides and their use as herbicides” (FMC CORPORATION, priority 2015, dated 2024).

What was measured:
Format in all cases: in vivo
[1] = test system: giant foxtail (Setaria faberii); assay: Test A postemergence; conditions: postemergence, 0 to 100 scale (0 no effect, 100 complete control)
Method in brief: (§1)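 Preemergence directed soil spray on seeded pots, or postemergence application to plants 2–10 cm, one- to two-leaf. Solvent mixture non-phytotoxic, with surfactant. Scored ~10 d later, visually, 0–100 vs untreated.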

Kochia (Kochia scoparia) [2] = assay: Test A postemergence; conditions: postemergence, 0 to 100 scale (0 no effect, 100 complete control)
Method in brief: as §1

[3] = test system: Galium (catchweed bedstraw, Galium aparine); assay: Test A postemergence; conditions: postemergence, 0 to 100 scale (0 no effect, 100 complete control)
Method in brief: as §1

[4] = test system: pigweed (Amaranthus retroflexus); assay: Test A postemergence; conditions: postemergence, 0 to 100 scale (0 no effect, 100 complete control)
Method in brief: as §1

[5] = test system: ryegrass, Italian (Italian ryegrass, Lolium multiflorum); assay: Test A postemergence; conditions: postemergence, 0 to 100 scale (0 no effect, 100 complete control)
Method in brief: as §1

[6] = test system: barnyardgrass (Echinochloa crus-galli); assay: Test A postemergence; conditions: postemergence, 0 to 100 scale (0 no effect, 100 complete control)
Method in brief: as §1

corn (Zea mays) = assay: Test A postemergence; conditions: postemergence, 0 to 100 scale (0 no effect, 100 complete control)
Method in brief: as §1

[7] = test system: ragweed (common ragweed, Ambrosia elatior); assay: Test A postemergence; conditions: postemergence, 0 to 100 scale (0 no effect, 100 complete control)
Method in brief: as §1

[8] = test system: blackgrass (Alopecurus myosuroides); assay: Test A postemergence; conditions: postemergence, 0 to 100 scale (0 no effect, 100 complete control)
Method in brief: as §1

[9] = test system: wheat (Triticum aestivum); assay: Test A postemergence; conditions: postemergence, 0 to 100 scale (0 no effect, 100 complete control)
Method in brief: as §1

[10] = test system: ducksalad (Heteranthera limosa); assay: Test B flooded paddy test; conditions: Flood, 250 g ai/ha; 0 to 100 scale where 0 is no effect and 100 is complete control; 13 to 15 d
Method in brief: (§2)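 Evaluation by eye, against controls, occurred 13–15 d post-treatment in a greenhouse, using a 0 (no effect) to 100 (complete control) scale. Application was into the paddy water, 3 cm deep over the soil, on 2-leaf plants.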

rice (Oryra sativa) = assay: Test B flooded paddy test; conditions: Flood, 250 g ai/ha; 0 to 100 scale where 0 is no effect and 100 is complete control; 13 to 15 d
Method in brief: as §2

[11] = test system: sedge, umbrella (small-flower umbrella sedge, Cyperus difformis); assay: Test B flooded paddy test; conditions: Flood, 250 g ai/ha; 0 to 100 scale where 0 is no effect and 100 is complete control; 13 to 15 d
Method in brief: as §2

[12] = test system: barnyardgrass (Echinochloa crus-galli); assay: Test B flooded paddy test; conditions: Flood, 250 g ai/ha; 0 to 100 scale where 0 is no effect and 100 is complete control; 13 to 15 d
Method in brief: as §2

[13] = test system: giant foxtail (Setaria faberii); assay: Test A preemergence
Method in brief: as §1

Kochia (Kochia scoparia) [14] = assay: Test A preemergence
Method in brief: as §1

[15] = test system: pigweed (Amaranthus retroflexus); assay: Test A preemergence
[16] = test system: ryegrass, Italian (Italian ryegrass, Lolium multiflorum); assay: Test A preemergence
Method in brief: as §1

[17] = test system: barnyardgrass (Echinochloa crus-galli); assay: Test A preemergence
Method in brief: as §1

[18] = test system: ragweed (common ragweed, Ambrosia elatior); assay: Test A preemergence
Method in brief: as §1

[19] = test system: ducksalad (Heteranthera limosa); assay: Test C flooded paddy test; conditions: Flood; for Plant response rating (scale of 0 to 100), Ducksalad: 0 is no effect, 100 is complete control
Method in brief: (§3)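 Test compounds were dosed straight into the flood water of pots holding 2-leaf-stage plants, with water kept 3 cm above the soil. Greenhouse plants were scored visually against controls after 13 to 15 d, from 0 (no effect) to 100 (complete control).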

rice (Oryza sativa) = assay: Test C flooded paddy test; conditions: Flood; for Plant response rating (scale of 0 to 100), Rice: 0 is no effect, 100 is complete control
Method in brief: as §3

[20] = test system: sedge, umbrella (small-flower umbrella sedge, Cyperus difformis); assay: Test C flooded paddy test; conditions: Flood; for Plant response rating (scale of 0 to 100), Sedge, Umbrella: 0 is no effect, 100 is complete control
Method in brief: as §3

[21] = test system: barnyardgrass (Echinochloa crus-galli); assay: Test C flooded paddy test; conditions: Flood; for Plant response rating (scale of 0 to 100), Barnyardgrass: 0 is no effect, 100 is complete control
Method in brief: as §3

[22] = 125 g ai/ha, visual rating after approx. 10 d
[23] = 500 g ai/ha, visual injury, approx. 10 d
[24] = 125 g ai/ha, Preemergence, visual injury after approximately 10 d, 0 to 100 scale where 0 is no effect and 100 is complete control
[25] = 500 g ai/ha, preemergence, 0 to 100 scale, 0 = no effect, 100 = complete control
[26] = 31 g ai/ha, scale 0 to 100 (0 no effect, 100 complete control), 13 to 15 d

Cc1ccc(C2CN(C)C(=O)C2C(=O)Nc2ccccc2F)cc1 (stereo not shown) [Compound 661]
Plant response rating, Foxtail, Giant [1, 22]: 90 | Plant response rating, Foxtail, Giant [1, 23]: 90 | Plant response rating, Kochia (Kochia (Kochia scoparia) [2]; [22]): 60 | Plant response rating, Kochia (Kochia (Kochia scoparia) [2]; [23]): 70 | Plant response rating, Galium [3, 22]: 50 | Plant response rating, Galium [3, 23]: 60 | Plant response rating, Pigweed [4, 22]: 0 | Plant response rating, Pigweed [4, 23]: 0 | Plant response rating, Ryegrass, Italian [5, 22]: 30 | Plant response rating, Ryegrass, Italian [5, 23]: 80 | Plant response rating, Barnyardgrass [6, 22]: 90 | Plant response rating, Barnyardgrass [6, 23]: 90 | Plant response rating, Corn (corn (Zea mays); [22]): 50 | Plant response rating, Corn (corn (Zea mays); [23]): 90 | Plant response rating, Ragweed [7, 22]: 10 | Plant response rating, Ragweed [7, 23]: 50 | Plant response rating, Blackgrass [8, 22]: 50 | Plant response rating, Blackgrass [8, 23]: 70 | Plant response rating, Wheat [9, 22]: 30 | Plant response rating, Wheat [9, 23]: 80 | Plant response rating, Ducksalad [10]: 100 | Plant response rating, Rice (rice (Oryra sativa)): 10 | Plant response rating, Sedge, Umbrella [11]: 0 | Plant response rating, Barnyardgrass [12]: 80 | Plant response rating, Foxtail, Giant [13, 24]: 90 | Plant response rating, Foxtail, Giant [13, 25]: 100 | Plant response rating, Kochia (Kochia (Kochia scoparia) [14]; [24]): 50 | Plant response rating, Kochia (Kochia (Kochia scoparia) [14]; [25]): 70 | Plant response rating, Pigweed [15, 24]: 0 | Plant response rating, Pigweed [15, 25]: 40 | Plant response rating, Ryegrass, Italian [16, 24]: 30 | Plant response rating, Ryegrass, Italian [16, 25]: 50 | Plant response rating, Barnyardgrass [17, 24]: 90 | Plant response rating, Barnyardgrass [17, 25]: 90 | Plant response rating, Ragweed [18, 24]: 70 | Plant response rating, Ragweed [18, 25]: 80 | Plant response rating, Ducksalad [19, 26]: 65 | Plant response rating (scale of 0 to 100), Ducksalad ([19]; 62 g ai/ha): 75 | Plant response rating (scale of 0 to 100), Ducksalad ([19]; 125 g ai/ha): 95 | Plant response rating (scale of 0 to 100), Ducksalad ([19]; 250 g ai/ha): 100 | Plant response rating, Rice (rice (Oryza sativa); [26]): 0 | Plant response rating (scale of 0 to 100), Rice (rice (Oryza sativa); 62 g ai/ha): 0 | Plant response rating (scale of 0 to 100), Rice (rice (Oryza sativa); 125 g ai/ha): 0 | Plant response rating (scale of 0 to 100), Rice (rice (Oryza sativa); 250 g ai/ha): 10 | Plant response rating, Sedge, Umbrella [20, 26]: 0 | Plant response rating (scale of 0 to 100), Sedge, Umbrella ([20]; 62 g ai/ha): 0 | Plant response rating (scale of 0 to 100), Sedge, Umbrella ([20]; 125 g ai/ha): 0 | Plant response rating (scale of 0 to 100), Sedge, Umbrella ([20]; 250 g ai/ha): 0 | Plant response rating, Barnyardgrass [21, 26]: 25 | Plant response rating (scale of 0 to 100), Barnyardgrass ([21]; 62 g ai/ha): 70 | Plant response rating (scale of 0 to 100), Barnyardgrass ([21]; 125 g ai/ha): 80 | Plant response rating (scale of 0 to 100), Barnyardgrass ([21]; 250 g ai/ha): 85
